Data published in patent US10973832B2, “Muscarinic M1 receptor agonists” (Heptares Therapeutics Limited, priority 2011, dated 2021).

What was measured:
Format in all cases: cell-based
[1] = molecular target: T1, human muscarinic M3 receptor (Homo sapiens, UniProt P20309); assay: Phospho-ERK1/2 assay, muscarinic M3; conditions: for EC50: phospho-ERK1/2 Alphascreen, read-out: pEC50 M3 (converted); for Emax: CHO, read-out: % Emax cf. ACh (M3)
T1 construct: expressed in transfected cells
Description: (§1) Functional assays were performed using the Alphascreen Surefire phospho-ERK1/2 assay (Crouch & Osmond, Comb. Chem. High Throughput Screen, 2008). ERK1/2 phosphorylation is a downstream consequence of both Gq/11 and Gi/o protein coupled receptor activation, making it highly suitable for the assessment of M1, M3 (Gq/11 coupled) and M2, M4 receptors (Gi/o coupled), rather than using different assay formats for different receptor subtypes. CHO cells stably expressing the human muscarinic M1, M2, M3 or M4 receptor were plated (25K/well) onto 96-well tissue culture plates in MEM-alpha+10% dialysed FBS. Once adhered, cells were serum-starved overnight. Agonist stimulation was performed by the addition of 5 μL agonist to the cells for 5 min (37° C.). Media was removed and 50 μL of lysis buffer added. After 15 min, a 4 μL sample was transferred to 384-well plate and 7 μL of detection mixture added. Plates were incubated for 2 h with gentle agitation in the dark and then read on a PHERAstar plate reader.
(§2) pEC50 and Emax figures were calculated from the resulting data for each receptor subtype.

[2] = molecular target: T2, human muscarinic M4 receptor (Homo sapiens, UniProt P08173); assay: Phospho-ERK1/2 assay, muscarinic M4; conditions: for EC50: phospho-ERK1/2 Alphascreen, read-out: pEC50 M4 (converted); for Emax: CHO, read-out: % Emax cf. ACh (M4)
T2 construct: expressed in transfected cells
T2 sequence (P08173 1-479): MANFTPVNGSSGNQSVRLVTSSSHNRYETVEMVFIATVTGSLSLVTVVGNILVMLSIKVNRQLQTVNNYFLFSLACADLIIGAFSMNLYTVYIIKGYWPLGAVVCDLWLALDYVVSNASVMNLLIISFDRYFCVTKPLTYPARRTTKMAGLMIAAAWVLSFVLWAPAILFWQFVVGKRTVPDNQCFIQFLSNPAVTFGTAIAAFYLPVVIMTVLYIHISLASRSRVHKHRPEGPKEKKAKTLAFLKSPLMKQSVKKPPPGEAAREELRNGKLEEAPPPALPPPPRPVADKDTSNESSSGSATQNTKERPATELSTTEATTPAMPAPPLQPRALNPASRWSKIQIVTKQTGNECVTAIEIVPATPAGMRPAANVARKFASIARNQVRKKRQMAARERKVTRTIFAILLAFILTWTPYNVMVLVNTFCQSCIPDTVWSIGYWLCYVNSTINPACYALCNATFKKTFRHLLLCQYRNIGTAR
Description: as §1, §2

[3] = molecular target: T3, human muscarinic M1 receptor (Homo sapiens, UniProt P11229); assay: Phospho-ERK1/2 assay, muscarinic M1; conditions: for EC50: CHO cells expressing human M1, phospho-ERK1/2 Alphascreen, read-out: pEC50 M1 (converted); for Emax: CHO, read-out: % Emax cf. ACh (M1)
T3 sequence (P11229 1-460): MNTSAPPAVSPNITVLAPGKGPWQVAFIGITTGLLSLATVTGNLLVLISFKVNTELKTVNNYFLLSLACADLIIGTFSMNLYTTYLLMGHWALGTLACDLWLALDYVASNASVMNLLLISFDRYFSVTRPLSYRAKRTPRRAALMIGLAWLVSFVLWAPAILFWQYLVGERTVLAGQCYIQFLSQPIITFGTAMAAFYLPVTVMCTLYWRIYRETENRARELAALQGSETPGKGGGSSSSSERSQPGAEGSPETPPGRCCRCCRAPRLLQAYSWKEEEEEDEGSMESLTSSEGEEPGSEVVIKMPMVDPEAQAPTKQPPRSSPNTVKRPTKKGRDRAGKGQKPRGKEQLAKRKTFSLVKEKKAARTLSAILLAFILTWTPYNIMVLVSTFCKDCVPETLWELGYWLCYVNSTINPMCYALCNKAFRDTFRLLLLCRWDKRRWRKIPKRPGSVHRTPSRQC
Description: as §1, §2

[4] = molecular target: T4, human muscarinic M2 receptor (Homo sapiens, UniProt P08172); assay: Phospho-ERK1/2 assay, muscarinic M2; conditions: for EC50: CHO cells expressing human M2, phospho-ERK1/2 Alphascreen, read-out: pEC50 M2 (converted); for Emax: CHO, read-out: % Emax cf. ACh (M2)
T4 sequence (P08172 1-466): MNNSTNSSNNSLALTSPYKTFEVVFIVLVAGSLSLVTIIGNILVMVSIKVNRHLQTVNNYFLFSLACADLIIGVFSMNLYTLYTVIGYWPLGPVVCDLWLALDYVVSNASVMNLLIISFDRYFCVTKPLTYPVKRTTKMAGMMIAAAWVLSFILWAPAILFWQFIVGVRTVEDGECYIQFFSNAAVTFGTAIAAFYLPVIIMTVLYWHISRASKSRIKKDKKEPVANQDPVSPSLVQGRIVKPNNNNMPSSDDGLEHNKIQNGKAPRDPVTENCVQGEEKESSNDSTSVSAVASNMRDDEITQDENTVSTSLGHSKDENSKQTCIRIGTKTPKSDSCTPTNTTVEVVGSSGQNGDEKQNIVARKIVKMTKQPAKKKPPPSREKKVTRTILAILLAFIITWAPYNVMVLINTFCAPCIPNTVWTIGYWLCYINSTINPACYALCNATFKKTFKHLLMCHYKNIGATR
Description: as §1, §2

T1 sequence (P20309 whole entry): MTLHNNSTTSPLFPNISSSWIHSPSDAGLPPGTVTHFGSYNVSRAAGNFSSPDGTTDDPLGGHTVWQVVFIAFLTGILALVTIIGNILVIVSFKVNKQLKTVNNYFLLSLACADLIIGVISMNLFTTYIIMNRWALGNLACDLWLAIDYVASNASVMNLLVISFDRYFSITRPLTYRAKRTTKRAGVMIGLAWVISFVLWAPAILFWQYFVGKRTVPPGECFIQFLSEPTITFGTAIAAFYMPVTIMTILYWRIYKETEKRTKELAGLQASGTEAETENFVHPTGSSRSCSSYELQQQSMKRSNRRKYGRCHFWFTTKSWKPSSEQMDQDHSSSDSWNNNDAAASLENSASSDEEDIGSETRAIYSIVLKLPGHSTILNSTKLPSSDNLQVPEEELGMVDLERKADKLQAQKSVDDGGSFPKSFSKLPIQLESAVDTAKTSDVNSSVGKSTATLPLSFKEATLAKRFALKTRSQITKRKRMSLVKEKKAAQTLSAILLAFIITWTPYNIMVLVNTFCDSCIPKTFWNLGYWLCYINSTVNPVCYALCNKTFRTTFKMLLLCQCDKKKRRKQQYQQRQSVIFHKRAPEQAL

Structure (SMILES) | % Emax cf. ACh (M3) ([1]; CHO cells expressing human M3, Emax relative to ACh) | % Emax cf. ACh (M4) ([2]; CHO cells expressing human M4, Emax relative to ACh) | EC50 [3] [nM] | Emax [3] [%] | EC50 [4] [nM] | Emax [4] [%] | EC50 ([1]; CHO cells expressing human M3) [nM] | Emax [1] [%] | EC50 ([2]; CHO cells expressing human M4) [nM] | Emax [2] [%]
CC(=O)OCC[N+](C)(C)C [ACh] | (112) % | (110) % |  |  |  |  |  |  |  | 
CCOC(=O)N1CCC(N2CCC(C(=O)NC(C)(C)C(C)C)CC2)CC1 [Example 3] |  |  | 200 | 116 | > 20000 | 6 | > 20000 | 4 | 562 | 85
CCOC(=O)N1CCCC(N2CCC(C(=O)NC(C)(C)C)CC2)CC1 (centres unmarked) [Example 7, ethyl 4-(4-((1,1-dimethylethyl)carbamoyl)piperidin-1-yl)azepane-1-carboxylate] |  |  | 81.3 | 111 | > 20000 | 2 | > 20000 | 14 | 191 | 80
CCOC(=O)N1CCCC(N2CCC(C(=O)NCC(C)CC)CC2)CC1 (centres unmarked) [Example 8, ethyl 4-(4-((2-methylbutyl)carbamoyl)piperidin-1-yl)azepane-1-carboxylate] |  |  | 151 | 93 | > 20000 | 3 | > 20000 | 2 | 1660 | 55
CCOC(=O)N1CCCC(N2CCC(C(=O)NCC(C)(C)C)CC2)CC1 (centres unmarked) [Example 9, ethyl 4-(4-((2,2-dimethylpropyl)carbamoyl)piperidin-1-yl)azepane-1-carboxylate] |  |  | 117 | 125 | > 20000 | 6 | 13200 | 23 | 794 | 41
CCOC(=O)N1CCCC(N2CCC(C(=O)NCC3CCC3)CC2)CC1 (centres unmarked) [Example 11, ethyl 4-(4-((cyclobutylmethyl)carbamoyl)piperidin-1-yl)azepane-1-carboxylate] |  |  | 60.3 | 117 | > 20000 | 7 | > 20000 | 11 | 427 | 67
CCOC(=O)N1CCCC(N2CCC(C(=O)NCC3CC3)CC2)CC1 (centres unmarked) [Example 15, ethyl 4-(4-((cyclopropylmethyl)carbamoyl)piperidin-1-yl)azepane-1-carboxylate] |  |  | 112 | 107 | > 20000 | 5 | > 20000 | 12 | 550 | 67
CCOC(=O)N1CCCC(N2CCC(C(=O)NC3(C)CCCCC3)CC2)CC1 (centres unmarked) [Example 17, ethyl 4-(4-((1-methylcyclohexyl)carbamoyl)piperidin-1-yl)azepane-1-carboxylate] |  |  | 61.7 | 104 | > 20000 | 0 | > 20000 | 5 | 724 | 46
CCOC(=O)N1CCCC(N2CCC(C(=O)NCC3(C)CCCC3)CC2)CC1 (centres unmarked) [Example 18] |  |  | 83.2 | 101 | > 20000 | 7 | > 20000 | 4 | 589 | 39
CCOC(=O)N1CCCC(N2CCC(C(=O)N(CC)CC3CC3)CC2)CC1 (centres unmarked) [Example 26, ethyl 4-(4-((cyclopropylmethyl)(ethyl)carbamoyl)piperidin-1-yl)azepane-1-carboxylate] |  |  | 447 | 95 | > 20000 | 7 | > 20000 | 0 | 309 | 51
CCOC(=O)N1CCCC(N2CCC(C(=O)NC3CCCC3)CC2)CC1 (centres unmarked) [Example 30, ethyl 4-(4-(cyclopentylcarbamoyl)piperidin-1-yl)azepane-1-carboxylate] |  |  | 57.5 | 132 | > 20000 | 3 | > 20000 | 33 | 224 | 104
CCOC(=O)N1CCCC(N2CCC(C(=O)NC(C)(C)C(C)C)CC2)CC1 (centres unmarked) [Example 31, ethyl 4-(4-((2,3-dimethylbutan-2-yl)carbamoyl)piperidin-1-yl)azepane-1-carboxylate] |  |  | 31.6 | 122 | > 20000 | 0 | > 20000 | 13 | 123 | 90
CCOC(=O)N1CCCC(N2CCC(C(=O)NCC3(CC)CCC3)CC2)CC1 (centres unmarked) [Example 37, ethyl 4-(4-(((1-ethylcyclobutyl)methyl)carbamoyl)piperidin-1-yl)azepane-1-carboxylate] |  |  | 13.8 | 87 | > 20000 | 8 | > 20000 | 10 | 191 | 75
CCOC(=O)N1CCCC(N2CCC(C(=O)NCC(C)C3CC3)CC2)CC1 (centres unmarked) [Example 39, ethyl 4-(4-((2-cyclopropylpropyl)carbamoyl)piperidin-1-yl)azepane-1-carboxylate] |  |  | 72.4 | 96 | > 20000 | 2 | > 20000 | 8 | > 20000 | 13
CCOC(=O)N1CCCC(N2CCC(F)(C(=O)NC(C)(C)CC)CC2)CC1 (centres unmarked) [Example 41, ethyl 4-(4-fluoro-4-((1,1-dimethylpropyl)carbamoyl)piperidin-1-yl)azepane-1-carboxylate] |  |  | 39.8 | 97 | > 20000 | 41 | > 20000 | 12 | 257 | 88
CCOC(=O)N1CCCC(N2CCC(F)(C(=O)NC(C)(C)C(C)C)CC2)CC1 (centres unmarked) [Example 44, ethyl 4-(4-fluoro-4-((2,3-dimethylbutan-2-yl)carbamoyl)piperidin-1-yl)azepane-1-carboxylate] |  |  | 31.6 | 104 | > 20000 | 19 | > 20000 | 5 | 417 | 113
CCOC(=O)N1CCCC(N2CCC(F)(C(=O)NCC(C)(C)C)CC2)CC1 (centres unmarked) [Example 46, ethyl 4-(4-fluoro-4-((2,2-dimethylpropyl)carbamoyl)pipendin-1-yl)azepane-1-carboxylate] |  |  | 105 | 90 | > 20000 | 9 | > 20000 | 1 | 1070 | 63
CCOC(=O)N1CCC[C@@H](N2CCC(C(=O)NC(C)(C)C)CC2)CC1 [Example 68, ethyl (4R)-4-[4-(tert-butylcarbamoyl)piperidin-1-yl]azepane-1-carboxylate] |  |  | 813 | 94 |  |  |  |  | 3720 | 64
